Measurements taken from ChEMBL document CHEMBL4261494, “Design, synthesis and biological evaluation of novel Schiff base-bridged tetrahydroprotoberberine triazoles as a new type of potential antimicrobial agents” (Medchemcomm, 2017).
In brackets after ≈: the same amount, converted by molar mass. Activity calls are given as the source filed them. The calls are words filed in the database; no cut-off is given here.

What was measured:
Salmonella typhi [1] = test: microbe, parasite or virus in culture; conditions: Salmonella enterica, 24 h
Staphylococcus aureus [2] = type: functional; conditions: N315, 24 h
Escherichia coli [3] = type: functional; conditions: DH52, 24 h
Staphylococcus aureus [4] = type: functional; conditions: ATCC 25923, 24 h
Proteus vulgaris = type: functional; conditions: ATCC 13315, 24 h
Candida albicans = type: functional; conditions: ATCC 10231, 24 h
Escherichia coli [5] = type: functional; conditions: JM109, 24 h
Micrococcus luteus = type: functional; conditions: ATCC 4698, 24 h
Shigella dysenteriae = type: functional; conditions: 24 h
Bacillus spizizenii = type: functional; conditions: ATCC 6633, 24 h
Pseudomonas aeruginosa = type: functional; conditions: ATCC 27853, 24 h
[6] = Aqueous solubility of the compound in pH 7.4 phosphate buffer at 1 mg after 3 hrs by UV absorption analysis; type: physicochemical
Escherichia coli [7] = test: Potency index, ratio of chloromycin MIC to test compound MIC for Escherichia coli JM109; type: functional
Salmonella typhi [8] = test: Potency index, ratio of chloromycin MIC to test compound MIC for Bacillus typhi; type: functional, Salmonella enterica subsp. enterica serovar Typhi
Aspergillus flavus = type: functional; conditions: ATCC 204304, 24 h
Kregervanrija fluxuum = type: functional; conditions: ATCC 9888, 24 h
Cyberlindnera jadinii = type: functional; conditions: Williopsis jadinii, ATCC 9950, 24 h
Saccharomyces cerevisiae = type: functional; conditions: 24 h
Staphylococcus aureus [9] = test: Antibacterial activity against methicillin-resistant Staphylococcus aureus N315 after 5 passages; type: functional, organism-based

Structure (SMILES): COc1cc(/C=N/n2cnnc2)c2c(c1OCc1cccc(F)c1)CN1CCc3cc4c(cc3C1C2)OCO4 (configuration not stated)
- MIC (Salmonella typhi [1]): 512 µg/mL (≈ 971 µM)
- MIC (Staphylococcus aureus [2]): 512 µg/mL (≈ 971 µM)
- MIC (Escherichia coli [3]): 256 µg/mL (≈ 485 µM)
- MIC (Staphylococcus aureus [4]): 256 µg/mL (≈ 485 µM)
- MIC (Proteus vulgaris): 64 µg/mL (≈ 121 µM)
- MIC (Candida albicans): 0.5 µg/mL (≈ 0.948 µM)
- MIC (Escherichia coli [5]): > 512 µg/mL
- MIC (Micrococcus luteus): 32 µg/mL (≈ 60.7 µM)
- MIC (Shigella dysenteriae): 256 µg/mL (≈ 485 µM)
- MIC (Bacillus spizizenii): 512 µg/mL (≈ 971 µM)
- MIC (Pseudomonas aeruginosa): 16 µg/mL (≈ 30.3 µM)

Structure (SMILES): COc1cc(/C=N/n2cnnc2)c2c(c1OCc1ccc(F)cc1)CN1CCc3cc4c(cc3C1C2)OCO4 (configuration not stated)
- MIC (Salmonella typhi [1]): 4 µg/mL (≈ 7.58 µM)
- MIC (Staphylococcus aureus [2]): 8 µg/mL (≈ 15.2 µM)
- MIC (Escherichia coli [3]): 16 µg/mL (≈ 30.3 µM)
- MIC (Staphylococcus aureus [4]): 32 µg/mL (≈ 60.7 µM)
- MIC (Proteus vulgaris): 128 µg/mL (≈ 243 µM)
- MIC (Escherichia coli [5]): 32 µg/mL (≈ 60.7 µM)
- MIC (Micrococcus luteus): 2 µg/mL (≈ 3.79 µM)
- solubility at 3 h [6]: 185 µg/mL (≈ 351 µM)
- MIC (Shigella dysenteriae): 16 µg/mL (≈ 30.3 µM)
- MIC (Bacillus spizizenii): 32 µg/mL (≈ 60.7 µM)
- MIC (Pseudomonas aeruginosa): 8 µg/mL (≈ 15.2 µM)

Structure (SMILES): CCCCOc1c(OC)cc(/C=N/n2cnnc2)c2c1CN1CCc3cc4c(cc3C1C2)OCO4 (configuration not stated)
- MIC (Salmonella typhi [1]): 16 µg/mL (≈ 33.6 µM)
- MIC (Staphylococcus aureus [2]): 8 µg/mL (≈ 16.8 µM)
- MIC (Escherichia coli [3]): 32 µg/mL (≈ 67.3 µM)
- MIC (Staphylococcus aureus [4]): 16 µg/mL (≈ 33.6 µM)
- MIC (Proteus vulgaris): 16 µg/mL (≈ 33.6 µM)
- MIC (Escherichia coli [5]): 16 µg/mL (≈ 33.6 µM)
- MIC (Micrococcus luteus): 1 µg/mL (≈ 2.1 µM)
- solubility at 3 h [6]: 121 µg/mL (≈ 254 µM)
- MIC (Shigella dysenteriae): 8 µg/mL (≈ 16.8 µM)
- MIC (Bacillus spizizenii): 16 µg/mL (≈ 33.6 µM)
- MIC (Pseudomonas aeruginosa): 16 µg/mL (≈ 33.6 µM)

Structure (SMILES): CCCCCCCCOc1c(OC)cc(/C=N/n2cnnc2)c2c1CN1CCc3cc4c(cc3C1C2)OCO4 (configuration not stated)
- MIC (Salmonella typhi [1]): 16 µg/mL (≈ 30.1 µM)
- MIC (Staphylococcus aureus [2]): 16 µg/mL (≈ 30.1 µM)
- MIC (Escherichia coli [3]): 16 µg/mL (≈ 30.1 µM)
- MIC (Staphylococcus aureus [4]): 8 µg/mL (≈ 15 µM)
- MIC (Proteus vulgaris): 16 µg/mL (≈ 30.1 µM)
- MIC (Escherichia coli [5]): 32 µg/mL (≈ 60.2 µM)
- MIC (Micrococcus luteus): 16 µg/mL (≈ 30.1 µM)
- MIC (Shigella dysenteriae): 64 µg/mL (≈ 120 µM)
- MIC (Bacillus spizizenii): 16 µg/mL (≈ 30.1 µM)
- MIC (Pseudomonas aeruginosa): 512 µg/mL (≈ 963 µM)

Structure (SMILES): CCCCCCOc1c(OC)cc(/C=N/n2cnnc2)c2c1CN1CCc3cc4c(cc3C1C2)OCO4 (configuration not stated)
- Ratio (Escherichia coli [7]): 8
- MIC (Salmonella typhi [1]): 2 µg/mL (≈ 3.97 µM)
- MIC (Staphylococcus aureus [2]): 32 µg/mL (≈ 63.5 µM)
- MIC (Escherichia coli [3]): 32 µg/mL (≈ 63.5 µM)
- MIC (Staphylococcus aureus [4]): 8 µg/mL (≈ 15.9 µM)
- MIC (Proteus vulgaris): 16 µg/mL (≈ 31.8 µM)
- MIC (Candida albicans): 2 to 32 µg/mL (≈ 3.97 to 63.5 µM)
- MIC (Escherichia coli [5]): 4 µg/mL (≈ 7.94 µM)
- Ratio (Salmonella typhi [8]): 16
- MIC (Micrococcus luteus): 16 µg/mL (≈ 31.8 µM)
- solubility at 3 h [6]: 442 µg/mL (≈ 878 µM)
- MIC (Shigella dysenteriae): 8 µg/mL (≈ 15.9 µM)
- MIC (Aspergillus flavus): 2 to 32 µg/mL (≈ 3.97 to 63.5 µM)
- MIC (Kregervanrija fluxuum): 2 to 32 µg/mL (≈ 3.97 to 63.5 µM)
- MIC (Bacillus spizizenii): 8 µg/mL (≈ 15.9 µM)
- MIC (Cyberlindnera jadinii): 2 to 32 µg/mL (≈ 3.97 to 63.5 µM)
- MIC (Saccharomyces cerevisiae): 2 to 32 µg/mL (≈ 3.97 to 63.5 µM)
- MIC (Pseudomonas aeruginosa): 32 µg/mL (≈ 63.5 µM)

Structure (SMILES): COc1cc(/C=N/n2cnnc2)c2c(c1OCc1ccc(Cl)cc1Cl)CN1CCc3cc4c(cc3C1C2)OCO4 (configuration not stated)
- MIC (Salmonella typhi [1]): 32 µg/mL (≈ 55.3 µM)
- MIC (Staphylococcus aureus [2]): 8 µg/mL (≈ 13.8 µM)
- MIC (Escherichia coli [3]): 256 µg/mL (≈ 443 µM)
- MIC (Staphylococcus aureus [4]): 16 µg/mL (≈ 27.7 µM)
- MIC (Proteus vulgaris): 32 µg/mL (≈ 55.3 µM)
- MIC (Escherichia coli [5]): 16 µg/mL (≈ 27.7 µM)
- MIC (Micrococcus luteus): 128 µg/mL (≈ 221 µM)
- MIC (Shigella dysenteriae): 512 µg/mL (≈ 885 µM)
- MIC (Bacillus spizizenii): 32 µg/mL (≈ 55.3 µM)
- MIC (Pseudomonas aeruginosa): 32 µg/mL (≈ 55.3 µM)

Structure (SMILES): CCn1cc(C(=O)O)c(=O)c2cc(F)c(N3CCNCC3)cc21 [NORFLOXACIN]
- Activity (Staphylococcus aureus [9]): inactive
- MIC (Salmonella typhi [1]): 4 µg/mL (≈ 12.5 µM)
- MIC (Staphylococcus aureus [2]): 8 µg/mL (≈ 25.1 µM)
- MIC (Escherichia coli [3]): 1 µg/mL (≈ 3.13 µM)
- MIC (Staphylococcus aureus [4]): 0.5 µg/mL (≈ 1.57 µM)
- MIC (Proteus vulgaris): 8 µg/mL (≈ 25.1 µM)
- MIC (Escherichia coli [5]): 1 µg/mL (≈ 3.13 µM)
- MIC (Micrococcus luteus): 4 µg/mL (≈ 12.5 µM)
- MIC (Shigella dysenteriae): 4 µg/mL (≈ 12.5 µM)
- MIC (Bacillus spizizenii): 4 µg/mL (≈ 12.5 µM)
- MIC (Pseudomonas aeruginosa): 16 µg/mL (≈ 50.1 µM)

Structure (SMILES): COc1cc(/C=N/n2cnnc2)c2c(c1OCc1ccccc1Cl)CN1CCc3cc4c(cc3C1C2)OCO4 (configuration not stated)
- MIC (Salmonella typhi [1]): 1 µg/mL (≈ 1.84 µM)
- MIC (Staphylococcus aureus [2]): 16 µg/mL (≈ 29.4 µM)
- MIC (Escherichia coli [3]): 64 µg/mL (≈ 118 µM)
- MIC (Staphylococcus aureus [4]): 16 µg/mL (≈ 29.4 µM)
- MIC (Proteus vulgaris): 512 µg/mL (≈ 941 µM)
- MIC (Escherichia coli [5]): 4 µg/mL (≈ 7.35 µM)
- MIC (Micrococcus luteus): 256 µg/mL (≈ 471 µM)
- MIC (Shigella dysenteriae): 16 µg/mL (≈ 29.4 µM)
- MIC (Bacillus spizizenii): 32 µg/mL (≈ 58.8 µM)
- MIC (Pseudomonas aeruginosa): 2 µg/mL (≈ 3.68 µM)

Structure (SMILES): COc1cc(/C=N/n2cnnc2)c2c(c1OCc1ccc([N+](=O)[O-])cc1)CN1CCc3cc4c(cc3C1C2)OCO4 (configuration not stated)
- MIC (Salmonella typhi [1]): 4 µg/mL (≈ 7.21 µM)
- MIC (Staphylococcus aureus [2]): 16 µg/mL (≈ 28.9 µM)
- MIC (Escherichia coli [3]): 512 µg/mL (≈ 923 µM)
- MIC (Staphylococcus aureus [4]): 512 µg/mL (≈ 923 µM)
- MIC (Proteus vulgaris): 512 µg/mL (≈ 923 µM)
- MIC (Escherichia coli [5]): 128 µg/mL (≈ 231 µM)
- MIC (Micrococcus luteus): 2 µg/mL (≈ 3.61 µM)
- MIC (Shigella dysenteriae): 64 µg/mL (≈ 115 µM)
- MIC (Bacillus spizizenii): 256 µg/mL (≈ 462 µM)
- MIC (Pseudomonas aeruginosa): 64 µg/mL (≈ 115 µM)
